Measurements published in US11419953B2, “Reduced metastable complex macrocyclic contrast agents” (INVENTURE, LLC, priority 2020, dated 2022).

How the values were obtained:
[1] = Free Gd3+ release in vitro, comparative data (Example 6); type: physicochemical; settings: after 30 minutes at standard dosing
[2] = commercial product stored in bottle; cited from earlier work
[3] = cited from earlier work

In Vitro PPM (free GAD released) [1]	SMILES	in-bottle measured free gadolinium [2]	stability lower at pH 7.4 than for the fully deprotonated complex [3]
1,204 +/− 3.9 PPM	CNC[C@H](O)[C@@H](O)[C@H](O)[C@H](O)CO.O=C([O-])CN1CCN(CC(=O)[O-])CCN(CC(=O)O)CCN(CC(=O)[O-])CC1.[Gd+3] [DOTAREM, gadoterate meglumine]	–	–
–	O=C([O-])CN1CCN(CC(=O)[O-])CCN(CC(=O)[O-])CCN(CC(=O)[O-])CC1.[Gd+3] [Gd-DOTA]	10^13 Gd3+ ions in 100 ml of GCA product	7 orders of magnitude
